Consider 13 molecules from PubChem BioAssay (NCI).

What all share (assay): DTP human tumour cell line panel, 48 h
In assay [1] the test system is XF 498 CNS.
Assay [2] concerns HOP-18 NSCLC.
Assay [3] concerns RXF-631 renal.

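Method: 48-hour compound exposure of cells in 96-well plates, five concentrations, linear interpolation of endpoints. At the GI50, growth is halved. TGI denotes the concentration required for complete inhibition of growth.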

What is called TGI is the concentration giving total growth inhibition. High values mean less potent growth arrest, low ones more potent growth arrest. As for `C[N+](C)(C)Cc1c(CC#N)[nH]c2ccccc12`, the TGI in assay [1] is > 100 µM.
`CC(C)[Si](OCC1CC(C[C@H]2CC(C[C@H]3C[C@@H](CO[Si](C(C)C)(C(C)C)C(C)C)OC(C)(C)O3)OC(C)(C)O2)OC(C)(C)O1)(C(C)C)C(C)C` (stereo partly specified): in assay [2], the TGI was > 100 µM.
For the molecule `O=c1[nH]c(=O)n(C2CC(O)C(CO)O2)cc1C#Cc1cc(C(F)(F)F)cc(C(F)(F)F)c1` (stereo unspecified), the concentration for total growth inhibition (TGI) in assay [2] is > 100 µM; in assay [3] it was > 100 µM; in assay [1], > 86.6 µM.
As to `COc1cc2c(oc(=O)c3cc4ccoc4c(OC)c32)c2cccc(O)c12`, the TGI in assay [2] and in assay [1] was > 100 µM each time.
On to `Cc1ccc(S(=O)(=O)N/N=C/c2oc(-c3ccccc3Cl)c(-c3ccccc3Cl)c2[N+](=O)[O-])cc1`, for which the TGI in assay [3] worked out at 60.3 µM.
In the case of `NC(CCCCN=Cc1nc(-c2ccccc2)oc1O)C(=O)O` (stereo unspecified), in assay [1], the total growth inhibition concentration (TGI) was > 100 µM.
As for `C=C(CN(C)C)C(=O)c1cc(C)ccc1C`, the TGI came to 11.6 µM in assay [2] and 33 µM in assay [1].
The term GI50 denotes the concentration at which growth is held to half of that of the control. As to `CC(=O)[O-].[Ni].c1ccc(/C(=N\Nc2ccccn2)c2ccccn2)cc1`, in assay [2], the GI50 was 2.81 µM and the TGI was > 100 µM.
`CC(C)C(Sc1nc(-c2ccccc2)c(-c2ccccc2)[nH]1)C(=O)N/N=C/c1ccc([N+](=O)[O-])cc1` (stereo unspecified) displayed a TGI in assay [1] of 41 µM.
In the case of `O=C1SC(c2ccccc2)(c2ccccc2)c2ccccc21`, the TGI in assay [2] and in assay [1] was > 100 µM throughout.
In assay [1], `Cc1nc2c(n1CCC(C)C)C(=O)c1ccccc1C2=O` had a TGI of 36.4 µM.
As to `NC(CCCNc1cccc(O)c1)C(=O)O` (stereo unspecified), the TGI in assay [2] was > 100 µM.
With `COc1ccc(CC2NCCc3cc(OC)c(OC)cc32)cc1` (stereo unspecified), the TGI in assay [2], in assay [3] and in assay [1] was > 100 µM each time.
